Source: patent publication US12171230B2, “Herbicidal compositions” (Bayer Aktiengesellschaft, priority 2018, dated 2024)

Legend:
Type in all cases: in vivo
Bidens pilosa = test: Post-emergence herbicidal action against Bidens pilosa
Description: (§1) When the observed efficacies exceed the formal sum total of the values of the tests with individual applications, they also exceed the expected value according to Colby, which is calculated using the formula below and is likewise regarded as an indication of synergism (cf. S. R. Colby; in Weeds 15 (1967) p. 20 to 22): E^C=A+B−([…])
(§2) Here: • A=efficacy of the active compound (A) in % at an application rate of a g a.i./ha; • B=efficacy of the active compound (B) in % at an application rate of b g a.i./ha; • E^C=expected value of the effect of the combination (A)+(B) in % at the combined application rate a+b g a.i./ha.
(§3) Seeds or rhizome pieces of mono- and dicotyledonous weeds are placed in sandy loam in pots, covered with soil and grown in a greenhouse under good growth conditions (temperature, air humidity, water supply). Three weeks after sowing, the test plants were treated at the three-leaf stage with the compositions according to the invention. The compositions according to the invention formulated as spray powders or as emulsion concentrates were sprayed onto the green plant parts in various dosages with an application rate of 300 to 800 l/ha of water (equivalent). After the test plants have been left to stand in the greenhouse under optimal growth conditions for about 3 to 4 weeks, the action of the preparations is scored visually in comparison to untreated controls. The compositions according to the invention also have good post-emergence herbicidal activity against a broad spectrum of economically important gramineous and broadleaf weeds.

Digitaria sanguinalis = test: Post-emergence herbicidal action against Digitaria sanguinalis; details: for Herbicidal action: 21 DAT
Description: as §1, §2, §3

Centaurea cyano = test: Post-emergence herbicidal action against Centaurea cyano
Description: Seeds or rhizome pieces of mono- and dicotyledonous weeds are placed in sandy loam in pots, covered with soil and grown in a greenhouse under good growth conditions (temperature, air humidity, water supply). Three weeks after sowing, the test plants were treated at the three-leaf stage with the compositions according to the invention. The compositions according to the invention formulated as spray powders or as emulsion concentrates were sprayed onto the green plant parts in various dosages with an application rate of 300 to 800 l/ha of water (equivalent).

Matricaria inodora = test: Post-emergence herbicidal action against Matricaria inodora
[1] = system: Lolium rigidum (resistant biotype); test: Post-emergence herbicidal action against Lolium rigidum (resistant biotype)
Description: (§4) The following abbreviations are used in the description and the tables that follow: • g of a.i./ha=grams of active substance (active ingredient) (=100% active compound) per hectare; • The sum total of the effects of the individual applications is reported under E^A; • expected values according to Colby are each reported under E^C.
(§5) The rating period is reported in days after application (DAT).

Phalaris minor [2] = test: Post-emergence herbicidal action against Phalaris minor; details: 15 g of a.i./ha
Description: as §4, §5

Alopecurus myosuroides [3] = test: Post-emergence herbicidal action against Alopecurus myosuroides; details: 1.7 g of a.i./ha
Description: as §4, §5

Amaranthus palmeri = test: Post-emergence herbicidal action against Amaranthus palmeri; details: Amaranthus palmeri, post-emergence, 504 h
Description: as §1, §2, §3

Poa annua = test: Post-emergence herbicidal action against Poa annua; details: for Herbicidal action in [%] 28 DAT against Poa annua: post-emergence
Description: as §1, §2, §3

Alopecurus myosuroides [4] = test: Post-emergence herbicidal action against Alopecurus myosuroides
Bromus sterilis = test: Post-emergence herbicidal action against Bromus sterilis
Lolium rigidum = test: Post-emergence herbicidal action against Lolium rigidum
[5] = system: Lolium rigidum (resistant biotype); test: Post-emergence herbicidal action against Lolium rigidum (resistant biotype); remark: listed apart in the source
Phalaris minor [6] = test: Post-emergence herbicidal action against Phalaris minor
Galium aparine = test: Post-emergence herbicidal action against Galium aparine; details: for Herbicidal action in [%] 28 DAT against Galium aparine: post-emergence
Description: as §1, §2, §3

In the case of CP(=O)(O)CCC(N)C(=O)O (racemic) [(B7.4) Glufosinate-], the Herbicidal action (Bidens pilosa; 21 DAT, 360 g a.i./ha) is reported as 70%, the Herbicidal action (Digitaria sanguinalis; 40 g a.i./ha) is reported as 10% and the Herbicidal action (Digitaria sanguinalis; 120 g a.i./ha) is reported as 30%.
COc1cc(OC)nc(NC(=O)NS(=O)(=O)c2cc(CNS(C)(=O)=O)ccc2C(=O)O)n1 [(B2.37) Mesosulfuron] was tested, and the “Herbicidal action 28 DAT against Centaurea cyanus” value (Centaurea cyano; 5 g of a.i./ha) was 60%, the “Herbicidal action 14 DAT against Matricaria inodora” value (Matricaria inodora; 15 g of a.i./ha) was 75% and the “Herbicidal action 28 DAT against Matricaria inodora” value (Matricaria inodora; 15 g of a.i./ha) was 65%. The “Herbicidal action 14 DAT against Lolium rigidum (resistant biotype)” value (“Herbicidal action 14 DAT … (resistant biotype)” below) ([1]; 1.7 g of a.i./ha) was 20%, the “Herbicidal action 28 DAT against Lolium rigidum (resistant biotype)” value (“Herbicidal action 28 DAT … (resistant biotype)” below) ([1]; 1.7 g of a.i./ha) was 0% and the “Herbicidal action 14 DAT … (resistant biotype)” value ([1]; 5 g of a.i./ha) was 30%. For the same molecule, the “Herbicidal action 28 DAT … (resistant biotype)” value ([1]; 5 g of a.i./ha) was 0%, the “Herbicidal action 14 DAT … (resistant biotype)” value ([1]; 15 g of a.i./ha) was 30% and the “Herbicidal action 28 DAT … (resistant biotype)” value ([1]; 15 g of a.i./ha) was 20%. The “Herbicidal action 28 DAT against Phalaris minor” value (Phalaris minor [2]) was 85% and the “Herbicidal action 28 DAT against Alopecurus myosuroides” value (Alopecurus myosuroides [3]) was 75%.
For COCc1cnc(C2=NC(C)(C(C)C)C(=O)N2)c(C(=O)O)c1 (stereo not shown) [(B4.11) Imazamox], the “Herbicidal action 21 DAT [%] against Bidens pilosa” value (Bidens pilosa; 3.3 g of a.i./ha) was 20%, the “Herbicidal action 21 DAT [%] against Bidens pilosa” value (Bidens pilosa; 30 g of a.i./ha) was 50% and the “Herbicidal action 21 DAT [%] against Digitaria sanguinalis” value (Digitaria sanguinalis; 3.3 g of a.i./ha) was 60%.
CCc1cnc(C2=NC(C)(C(C)C)C(=O)N2)c(C(=O)O)c1 (stereo not shown) [(B4.15) Imazethapyr] showed a pest or weed control at 3.33 g/ha (Amaranthus palmeri; 3.33 g of a.i./ha, read-out: Herbicidal action 21 DAT [%] against Amaranthus palmeri) of 0%, a pest or weed control at 10 g/ha (Amaranthus palmeri; 10 g of a.i./ha, read-out: Herbicidal action 21 DAT [%] against Amaranthus palmeri) of 0% and a pest or weed control at 30 g/ha (Amaranthus palmeri; 30 g of a.i./ha, read-out: Herbicidal action 21 DAT [%] against Amaranthus palmeri) of 10%. For the same molecule, the “Herbicidal action 21 DAT [%] against Bidens pilosa” value (Bidens pilosa; 3.33 g of a.i./ha) was 0%, the “Herbicidal action 21 DAT [%] against Bidens pilosa” value (Bidens pilosa; 10 g of a.i./ha) was 0% and the “Herbicidal action 21 DAT [%] against Bidens pilosa” value (Bidens pilosa; 30 g of a.i./ha) was 25%.
With Cc1nn(C)c(O)c1C(=O)c1ccc(C(F)(F)F)cc1S(C)(=O)=O [(B4.22) Pyrasulfotole] the “Herbicidal action in [%] 14 DAT against Poa annua L.” value (Poa annua; 5 g of a.i./ha) was 0%, the “Herbicidal action in [%] 28 DAT against Poa annua L.” value (Poa annua; 5 g of a.i./ha) was 0% and the “Herbicidal action in [%] 14 DAT against Poa annua L.” value (Poa annua; 15 g of a.i./ha) was 0%. For the same molecule, the “Herbicidal action in [%] 28 DAT against Poa annua L.” value (Poa annua; 15 g of a.i./ha) was 0%, the “Herbicidal action in [%] 14 DAT against Poa annua L.” value (Poa annua; 45 g of a.i./ha) was 0% and the “Herbicidal action in [%] 28 DAT against Poa annua L.” value (Poa annua; 45 g of a.i./ha) was 0%. The “Herbicidal action in [%] 28 DAT against Centaurea cyanus” value (Centaurea cyano; 5 g of a.i./ha) was 0%, the “Herbicidal action in [%] 14 DAT against Centaurea cyanus” value (Centaurea cyano; 15 g of a.i./ha) was 10% and the “Herbicidal action in [%] 28 DAT against Centaurea cyanus” value (Centaurea cyano; 15 g of a.i./ha) was 0%. For the same molecule, the “Herbicidal action in [%] 14 DAT against Centaurea cyanus” value (Centaurea cyano; 45 g of a.i./ha) was 30%, the “Herbicidal action in [%] 28 DAT against Centaurea cyanus” value (Centaurea cyano; 45 g of a.i./ha) was 20% and the “Herbicidal action in [%] 14 DAT against Matricaria inodora” value (Matricaria inodora; 5 g of a.i./ha) was 20%. For the same molecule, the “Herbicidal action in [%] 28 DAT against Matricaria inodora” value (Matricaria inodora; 5 g of a.i./ha) was 10%, the “Herbicidal action in [%] 14 DAT against Alopecurus myosuroides” value (Alopecurus myosuroides [4]; 5 g of a.i./ha) was 0% and the “Herbicidal action in [%] 28 DAT against Alopecurus myosuroides” value (Alopecurus myosuroides [4]; 5 g of a.i./ha) was 0%. The “Herbicidal action in [%] 14 DAT against Alopecurus myosuroides” value (Alopecurus myosuroides [4]; 15 g of a.i./ha) was 0%, the “Herbicidal action in [%] 28 DAT against Alopecurus myosuroides” value (Alopecurus myosuroides [4]; 15 g of a.i./ha) was 0% and the “Herbicidal action in [%] 14 DAT against Alopecurus myosuroides” value (Alopecurus myosuroides [4]; 45 g of a.i./ha) was 10%. The “Herbicidal action in [%] 28 DAT against Alopecurus myosuroides” value (Alopecurus myosuroides [4]; 45 g of a.i./ha) was 10%, the “Herbicidal action in [%] 14 DAT against Bromus sterilis” value (Bromus sterilis; 5 g of a.i./ha) was 0% and the “Herbicidal action in [%] 14 DAT against Bromus sterilis” value (Bromus sterilis; 15 g of a.i./ha) was 0%. The “Herbicidal action in [%] 14 DAT against Bromus sterilis” value (Bromus sterilis; 45 g of a.i./ha) was 10%, the “Herbicidal action in [%] 14 DAT against Lolium rigidum” value (Lolium rigidum; 5 g of a.i./ha) was 0% and the “Herbicidal action in [%] 28 DAT against Lolium rigidum” value (Lolium rigidum; 5 g of a.i./ha) was 0%. The “Herbicidal action in [%] 14 DAT against Lolium rigidum” value (Lolium rigidum; 15 g of a.i./ha) was 5%, the “Herbicidal action in [%] 28 DAT against Lolium rigidum” value (Lolium rigidum; 15 g of a.i./ha) was 0% and the “Herbicidal action in [%] 14 DAT against Lolium rigidum” value (Lolium rigidum; 45 g of a.i./ha) was 5%. For the same molecule, the “Herbicidal action in [%] 28 DAT against Lolium rigidum” value (Lolium rigidum; 45 g of a.i./ha) was 10%, the “Herbicidal action in [%] 14 DAT against Lolium rigidum (resistant biotype)” value ([5]; 5 g of a.i./ha) was 5% and the “Herbicidal action in [%] 28 DAT against Lolium rigidum (resistant biotype)” value ([5]; 5 g of a.i./ha) was 0%. For the same molecule, the “Herbicidal action in [%] 14 DAT against Lolium rigidum (resistant biotype)” value ([5]; 15 g of a.i./ha) was 5%, the “Herbicidal action in [%] 28 DAT against Lolium rigidum (resistant biotype)” value ([5]; 15 g of a.i./ha) was 0% and the “Herbicidal action in [%] 14 DAT against Lolium rigidum (resistant biotype)” value ([5]; 45 g of a.i./ha) was 10%. For the same molecule, the “Herbicidal action in [%] 14 DAT against Phalaris minor” value (Phalaris minor [6]; 5 g of a.i./ha) was 0%, the “Herbicidal action in [%] 28 DAT against Phalaris minor” value (Phalaris minor [6]; 5 g of a.i./ha) was 0% and the “Herbicidal action in [%] 14 DAT against Phalaris minor” value (Phalaris minor [6]; 15 g of a.i./ha) was 0%. The “Herbicidal action in [%] 28 DAT against Phalaris minor” value (Phalaris minor [6]; 15 g of a.i./ha) was 0%.
With C#CCN1C(=O)COc2cc(F)c(N3C(=O)C4=C(CCCC4)C3=O)cc21 [(B5.26) Flumioxazin] the pest or weed control at 1.33 g/ha (Amaranthus palmeri; 21 DAT, 1.33 g of a.i./ha) was 0%, the pest or weed control at 4 g/ha (Amaranthus palmeri; 21 DAT, 4 g of a.i./ha) was 0% and the pest or weed control at 12 g/ha (Amaranthus palmeri; 21 DAT, 12 g of a.i./ha) was 10%.
CCOC(=O)COc1ncccc1Oc1cc(-n2c(=O)cc(C(F)(F)F)n(C)c2=O)c(F)cc1Cl [(B9.14), ethyl [3-[2-chloro-4-fluoro-5-(1-methyl-6-trifluoromethyl-2,4-dioxo-1,2,3,4-tetrahydropyrimidin-3-yl)phenoxy]-2-pyridyloxy]acetate, reference compound] was tested, and the “Herbicidal action in [%] 28 DAT against Poa annua” value (Poa annua; 5 g of a.i./ha) was 80%, the “Herbicidal action in [%] 28 DAT against Poa annua” value (Poa annua; 10 g of a.i./ha) was 60% and the “Herbicidal action in [%] 28 DAT against Centaurea cyano” value (Centaurea cyano; 2.5 g of a.i./ha, post-emergence) was 90%. The “Herbicidal action in [%] 28 DAT against Galium aparine” value (Galium aparine; 5 g of a.i./ha) was 90%, the “Herbicidal action in [%] 28 DAT against Galium aparine” value (Galium aparine; 10 g of a.i./ha) was 90% and the “Herbicidal action in [%] 28 DAT against Matricaria inodora” value (Matricaria inodora; 10 g of a.i./ha, post-emergence) was 98%.
Molecule CC(C)N.O=C(O)CNCP(=O)(O)O [(CAS 38641-94-0)] has a Herbicidal action (Galium aparine; 28 DAT, 150 g a.i./ha) of 40%.
